Assay results as given in ChEMBL document CHEMBL3108684, “Discovery and development of potent and selective inhibitors of histone methyltransferase g9a” (ACS Med Chem Lett, 2014).
One block for each compound: values may come before it. The source made the active and inactive calls. The rule behind the calls is not given here.

What was measured:
[1] = tested on: PC-3; assay: Effect on total H3K36Me2 protein level in human PC3 cells at 0.01 to 10 uM after 72 hrs by Western blotting analysis; assay type: functional, cell-based
[2] = tested on: PC-3; assay: Effect on total H3K27Me3 protein level in human PC3 cells at 0.01 to 10 uM after 72 hrs by Western blotting analysis; assay type: functional, cell-based
[3] = tested on: PC-3; assay: Effect on total histone 3 protein level in human PC3 cells at 0.01 to 10 uM after 72 hrs by Western blotting analysis; assay type: functional, cell-based
[4] = target: Histone-lysine N-methyltransferase EHMT1 (Homo sapiens, UniProt Q9H9B1); assay: Inhibition of GLP (unknown origin)-mediated incorporation of methyl group from [3H]-SAM into peptide substrate by scintillation proximity assay
[5] = target: Histone-lysine N-methyltransferase NSD2 (Homo sapiens) (UniProt O96028); assay: Inhibition of WHSC1 (unknown origin)-mediated incorporation of methyl group from [3H]-SAM into peptide substrate up to 50 uM after 1 hr by scintillation proximity assay
[6] = target: Histone-lysine N-methyltransferase NSD3 (Homo sapiens) (UniProt Q9BZ95); assay: Inhibition of WHSC1L (unknown origin)-mediated incorporation of methyl group from [3H]-SAM into peptide substrate up to 50 uM after 1 hr by scintillation proximity assay
[7] = target: Histone-lysine N-methyltransferase, H3 lysine-79 specific (Homo sapiens) (UniProt Q8TEK3); assay: Inhibition of DOT1L (unknown origin)-mediated incorporation of methyl group from [3H]-SAM into peptide substrate up to 50 uM after 1 hr by scintillation proximity assay
[8] = target: Histone-lysine N-methyltransferase SETD2 (Homo sapiens) (UniProt Q9BYW2); assay: Inhibition of SETD2 (unknown origin)-mediated incorporation of methyl group from [3H]-SAM into peptide substrate up to 50 uM by scintillation proximity assay
[9] = target: N-lysine methyltransferase SMYD2 (Homo sapiens) (UniProt Q9NRG4); assay: Inhibition of SMYD2 (unknown origin)-mediated incorporation of methyl group from [3H]-SAM into peptide substrate up to 50 uM by scintillation proximity assay
[10] = target: Histone-lysine N-methyltransferase KMT5C (Homo sapiens) (UniProt Q86Y97); assay: Inhibition of SUV420H2 (unknown origin)-mediated incorporation of methyl group from [3H]-SAM into peptide substrate up to 50 uM by scintillation proximity assay
[11] = target: Histone-lysine N-methyltransferase KMT5B (Homo sapiens) (UniProt Q4FZB7); assay: Inhibition of SUV420H1 (unknown origin)-mediated incorporation of methyl group from [3H]-SAM into peptide substrate up to 50 uM by scintillation proximity assay
[12] = target: DNA (cytosine-5)-methyltransferase 1 (Homo sapiens) (UniProt P26358); assay: Inhibition of DNMT1 (unknown origin)-mediated incorporation of methyl group from [3H]-SAM into dsDNA substrate up to 50 uM by scintillation proximity assay
[13] = target: Histone-lysine N-methyltransferase SMYD3 (Homo sapiens) (UniProt Q9H7B4); assay: Inhibition of SMYD3 (unknown origin)-mediated incorporation of methyl group from [3H]-SAM into peptide substrate up to 50 uM by scintillation proximity assay
[14] = target: EZH2/SUZ12/EED complex (Homo sapiens) (UniProt Q15910+O75530+Q15022); assay: Inhibition of EZH2/SUZ12/EED complex (unknown origin)-mediated incorporation of methyl group from [3H]-SAM into peptide substrate up to 50 uM by scintillation proximity assay; assay type: protein-complex assay
[15] = target: EZH1/SUZ12/EED/AEBP2/RBBP4 complex (Homo sapiens) (UniProt Q92800+O75530+Q15022+Q6ZN18+Q09028); assay: Inhibition of EZH1/EED/SUZ12/AEBP2/RBBP4 complex (unknown origin)-mediated incorporation of methyl group from [3H]-SAM into peptide substrate up to 50 uM by scintillation proximity assay; assay type: protein-complex assay
[16] = target: N-lysine methyltransferase KMT5A (Homo sapiens) (UniProt Q9NQR1); assay: Inhibition of SETD8 (unknown origin)-mediated incorporation of methyl group from [3H]-SAM into peptide substrate up to 50 uM by scintillation proximity assay
[17] = target: Protein arginine N-methyltransferase 8 (Homo sapiens) (UniProt Q9NR22); assay: Inhibition of PRMT8 (unknown origin)-mediated incorporation of methyl group from [3H]-SAM into peptide substrate up to 50 uM by scintillation proximity assay
[18] = target: Protein arginine N-methyltransferase 6 (Homo sapiens) (UniProt Q96LA8); assay: Inhibition of PRMT6 (unknown origin)-mediated incorporation of methyl group from [3H]-SAM into peptide substrate up to 50 uM by scintillation proximity assay
[19] = target: PRMT5/MEP50 complex (Homo sapiens) (UniProt O14744+Q9BQA1); assay: Inhibition of PRMT5/MEP50 complex (unknown origin)-mediated incorporation of methyl group from [3H]-SAM into peptide substrate up to 50 uM by scintillation proximity assay; assay type: protein-complex assay
[20] = target: Protein arginine N-methyltransferase 3 (Homo sapiens) (UniProt O60678); assay: Inhibition of PRMT3 (unknown origin)-mediated incorporation of methyl group from [3H]-SAM into peptide substrate up to 50 uM by scintillation proximity assay
[21] = target: Protein arginine N-methyltransferase 1 (Homo sapiens) (UniProt Q99873); assay: Inhibition of PRMT1 (unknown origin)-mediated incorporation of methyl group from [3H]-SAM into peptide substrate up to 50 uM by scintillation proximity assay
[22] = target: Histone-lysine N-methyltransferase SETD7 (Homo sapiens) (UniProt Q8WTS6); assay: Inhibition of SETD7 (unknown origin)-mediated incorporation of methyl group from [3H]-SAM into peptide substrate up to 50 uM by scintillation proximity assay
[23] = target: MLL1/ASH2L/RBBP5/WDR5 complex (Homo sapiens) (UniProt P61964+Q03164+Q9UBL3+Q15291); assay: Inhibition of MLL1/ASH2L/RBBP5/WDR5 complex (unknown origin)-mediated incorporation of methyl group from [3H]-SAM into peptide substrate up to 50 uM by scintillation proximity assay; assay type: protein-complex assay
[24] = target: Histone-lysine N-methyltransferase SETDB1 (Homo sapiens) (UniProt Q15047); assay: Inhibition of SETDB1 (unknown origin)-mediated incorporation of methyl group from [3H]-SAM into peptide substrate up to 50 uM by scintillation proximity assay
[25] = target: Histone-lysine N-methyltransferase SUV39H2 (Homo sapiens) (UniProt Q9H5I1); assay: Inhibition of SUV39H2 (unknown origin)-mediated incorporation of methyl group from [3H]-SAM into peptide substrate up to 50 uM by scintillation proximity assay
[26] = target: Histone-lysine N-methyltransferase EHMT2 (Homo sapiens) (UniProt Q96KQ7); conditions: PC-3, 3 uM
Description: Inhibition of G9a in human PC3 cells assessed as reduction in H3K9Me2 level at 3 uM after 72 hrs by Western blotting analysis relative to control

[27] = target: T1, Histone-lysine N-methyltransferase EHMT2 (Homo sapiens, UniProt Q96KQ7); assay: Inhibition of G9a (unknown origin) using biotinylated-histone H3(1-21) peptide as substrate after 3 hrs by AlphaLISA assay
T1 sequence (Q96KQ7 whole entry): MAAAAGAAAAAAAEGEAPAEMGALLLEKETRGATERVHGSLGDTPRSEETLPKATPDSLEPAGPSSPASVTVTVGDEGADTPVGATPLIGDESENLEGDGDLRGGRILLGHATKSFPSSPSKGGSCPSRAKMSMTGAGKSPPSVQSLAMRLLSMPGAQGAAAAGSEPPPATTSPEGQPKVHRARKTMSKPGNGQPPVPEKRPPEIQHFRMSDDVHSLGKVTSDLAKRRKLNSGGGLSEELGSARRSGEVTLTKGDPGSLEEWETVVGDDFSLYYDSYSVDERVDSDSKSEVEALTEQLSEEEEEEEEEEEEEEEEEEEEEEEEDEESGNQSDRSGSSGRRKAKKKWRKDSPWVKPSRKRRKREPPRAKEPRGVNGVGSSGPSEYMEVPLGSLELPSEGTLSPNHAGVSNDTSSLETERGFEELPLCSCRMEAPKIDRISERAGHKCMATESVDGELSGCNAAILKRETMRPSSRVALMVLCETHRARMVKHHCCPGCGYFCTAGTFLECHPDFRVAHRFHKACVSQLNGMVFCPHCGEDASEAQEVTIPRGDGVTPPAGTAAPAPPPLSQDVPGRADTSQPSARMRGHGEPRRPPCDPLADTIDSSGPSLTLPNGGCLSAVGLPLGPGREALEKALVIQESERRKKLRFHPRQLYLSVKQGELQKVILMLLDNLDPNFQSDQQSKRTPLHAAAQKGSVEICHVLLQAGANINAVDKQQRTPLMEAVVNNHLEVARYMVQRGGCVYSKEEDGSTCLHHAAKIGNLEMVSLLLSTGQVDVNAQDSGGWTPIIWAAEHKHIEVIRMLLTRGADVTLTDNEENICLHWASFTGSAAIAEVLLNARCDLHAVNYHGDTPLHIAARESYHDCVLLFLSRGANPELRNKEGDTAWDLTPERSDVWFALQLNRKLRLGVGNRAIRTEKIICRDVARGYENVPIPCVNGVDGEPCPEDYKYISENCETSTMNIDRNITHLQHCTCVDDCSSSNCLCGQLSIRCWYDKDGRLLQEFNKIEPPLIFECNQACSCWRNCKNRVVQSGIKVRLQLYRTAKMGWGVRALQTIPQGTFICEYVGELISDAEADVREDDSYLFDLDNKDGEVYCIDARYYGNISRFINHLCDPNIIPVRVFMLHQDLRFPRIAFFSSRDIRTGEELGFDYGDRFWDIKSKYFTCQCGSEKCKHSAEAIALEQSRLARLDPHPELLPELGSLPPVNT

Sequence of Histone-lysine N-methyltransferase SUV39H2 (Homo sapiens) (Q9H5I1 whole entry): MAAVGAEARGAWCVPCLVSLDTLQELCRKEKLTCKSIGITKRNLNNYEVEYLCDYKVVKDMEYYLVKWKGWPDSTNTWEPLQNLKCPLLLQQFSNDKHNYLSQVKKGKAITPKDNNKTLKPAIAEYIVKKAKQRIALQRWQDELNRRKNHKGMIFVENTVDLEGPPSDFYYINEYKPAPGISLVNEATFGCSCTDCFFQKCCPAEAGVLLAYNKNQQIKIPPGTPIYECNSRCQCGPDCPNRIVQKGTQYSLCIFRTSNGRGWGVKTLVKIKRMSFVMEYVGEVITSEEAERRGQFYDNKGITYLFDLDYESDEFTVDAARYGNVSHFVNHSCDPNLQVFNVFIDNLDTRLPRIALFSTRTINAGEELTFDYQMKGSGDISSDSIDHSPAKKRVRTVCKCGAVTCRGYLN
Sequence of Histone-lysine N-methyltransferase NSD2 (Homo sapiens) (O96028 whole entry): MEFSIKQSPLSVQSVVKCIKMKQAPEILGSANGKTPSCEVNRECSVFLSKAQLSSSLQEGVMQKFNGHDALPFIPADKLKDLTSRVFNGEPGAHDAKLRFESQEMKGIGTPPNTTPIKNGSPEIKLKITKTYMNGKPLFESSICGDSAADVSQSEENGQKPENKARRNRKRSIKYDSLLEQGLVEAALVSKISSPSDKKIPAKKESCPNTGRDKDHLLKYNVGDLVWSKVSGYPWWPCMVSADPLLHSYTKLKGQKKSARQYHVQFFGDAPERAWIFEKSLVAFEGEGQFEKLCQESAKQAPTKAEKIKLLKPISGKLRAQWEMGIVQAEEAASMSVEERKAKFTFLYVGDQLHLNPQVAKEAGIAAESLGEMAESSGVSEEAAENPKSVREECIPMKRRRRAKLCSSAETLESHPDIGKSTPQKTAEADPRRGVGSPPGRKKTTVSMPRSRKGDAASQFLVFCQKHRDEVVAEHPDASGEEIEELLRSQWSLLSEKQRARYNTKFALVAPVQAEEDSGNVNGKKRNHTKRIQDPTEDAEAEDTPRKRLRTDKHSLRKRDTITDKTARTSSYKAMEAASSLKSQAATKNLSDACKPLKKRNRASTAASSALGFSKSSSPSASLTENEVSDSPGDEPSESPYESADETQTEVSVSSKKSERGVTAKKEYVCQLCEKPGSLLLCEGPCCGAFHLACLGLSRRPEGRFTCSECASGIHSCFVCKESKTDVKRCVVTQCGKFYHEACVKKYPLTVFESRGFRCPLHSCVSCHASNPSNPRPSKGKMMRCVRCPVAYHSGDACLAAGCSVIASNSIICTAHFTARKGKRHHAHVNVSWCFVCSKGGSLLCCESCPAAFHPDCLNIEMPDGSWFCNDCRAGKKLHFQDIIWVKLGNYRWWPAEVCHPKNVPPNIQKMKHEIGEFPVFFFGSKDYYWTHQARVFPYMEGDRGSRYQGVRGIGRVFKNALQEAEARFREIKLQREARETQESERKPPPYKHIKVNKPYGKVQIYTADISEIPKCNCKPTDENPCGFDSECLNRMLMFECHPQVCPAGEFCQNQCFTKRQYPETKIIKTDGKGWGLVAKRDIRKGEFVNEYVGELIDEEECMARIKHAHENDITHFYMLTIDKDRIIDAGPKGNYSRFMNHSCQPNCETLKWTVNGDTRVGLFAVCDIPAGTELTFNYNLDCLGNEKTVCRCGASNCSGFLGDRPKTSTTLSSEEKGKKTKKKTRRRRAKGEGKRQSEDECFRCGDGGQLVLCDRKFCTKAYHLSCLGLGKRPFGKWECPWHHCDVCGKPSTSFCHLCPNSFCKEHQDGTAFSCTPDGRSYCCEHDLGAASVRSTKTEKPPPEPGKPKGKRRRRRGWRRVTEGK
Sequence of N-lysine methyltransferase KMT5A (Homo sapiens) (Q9NQR1 whole entry): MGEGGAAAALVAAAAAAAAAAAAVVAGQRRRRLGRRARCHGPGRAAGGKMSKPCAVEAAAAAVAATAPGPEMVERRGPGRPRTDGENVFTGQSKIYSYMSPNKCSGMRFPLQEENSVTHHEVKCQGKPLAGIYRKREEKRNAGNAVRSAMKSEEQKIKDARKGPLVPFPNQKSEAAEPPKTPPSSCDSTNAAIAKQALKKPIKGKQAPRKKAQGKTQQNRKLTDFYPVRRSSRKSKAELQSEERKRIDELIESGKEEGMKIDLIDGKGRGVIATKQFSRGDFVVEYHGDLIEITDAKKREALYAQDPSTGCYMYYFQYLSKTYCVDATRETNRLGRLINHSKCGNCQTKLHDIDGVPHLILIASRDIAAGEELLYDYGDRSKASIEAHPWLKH
Sequence of N-lysine methyltransferase SMYD2 (Homo sapiens) (Q9NRG4 whole entry): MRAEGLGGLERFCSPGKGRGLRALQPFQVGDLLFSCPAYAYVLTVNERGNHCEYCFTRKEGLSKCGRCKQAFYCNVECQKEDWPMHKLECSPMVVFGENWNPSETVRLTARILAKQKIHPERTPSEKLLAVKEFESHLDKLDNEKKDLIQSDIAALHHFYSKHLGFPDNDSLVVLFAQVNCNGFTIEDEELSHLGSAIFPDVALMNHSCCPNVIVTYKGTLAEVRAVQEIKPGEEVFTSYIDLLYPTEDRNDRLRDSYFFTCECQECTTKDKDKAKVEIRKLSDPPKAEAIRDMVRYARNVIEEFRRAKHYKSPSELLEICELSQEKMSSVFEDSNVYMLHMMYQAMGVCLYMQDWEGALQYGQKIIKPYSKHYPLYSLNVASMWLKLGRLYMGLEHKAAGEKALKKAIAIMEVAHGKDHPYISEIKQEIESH
Sequence of Histone-lysine N-methyltransferase SMYD3 (Homo sapiens) (Q9H7B4 whole entry): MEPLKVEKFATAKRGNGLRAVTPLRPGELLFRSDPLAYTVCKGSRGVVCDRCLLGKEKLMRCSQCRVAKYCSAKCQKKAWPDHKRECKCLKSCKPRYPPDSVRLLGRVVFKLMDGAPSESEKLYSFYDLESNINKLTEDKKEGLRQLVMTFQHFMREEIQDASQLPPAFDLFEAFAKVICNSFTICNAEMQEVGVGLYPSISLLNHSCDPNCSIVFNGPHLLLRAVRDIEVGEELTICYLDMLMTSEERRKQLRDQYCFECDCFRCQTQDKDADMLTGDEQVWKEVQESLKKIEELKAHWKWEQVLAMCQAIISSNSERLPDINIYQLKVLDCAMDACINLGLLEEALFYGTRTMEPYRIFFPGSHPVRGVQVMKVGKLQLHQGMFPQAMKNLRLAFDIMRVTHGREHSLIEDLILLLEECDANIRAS
Sequence of Protein arginine N-methyltransferase 6 (Homo sapiens) (Q96LA8 whole entry, looked up): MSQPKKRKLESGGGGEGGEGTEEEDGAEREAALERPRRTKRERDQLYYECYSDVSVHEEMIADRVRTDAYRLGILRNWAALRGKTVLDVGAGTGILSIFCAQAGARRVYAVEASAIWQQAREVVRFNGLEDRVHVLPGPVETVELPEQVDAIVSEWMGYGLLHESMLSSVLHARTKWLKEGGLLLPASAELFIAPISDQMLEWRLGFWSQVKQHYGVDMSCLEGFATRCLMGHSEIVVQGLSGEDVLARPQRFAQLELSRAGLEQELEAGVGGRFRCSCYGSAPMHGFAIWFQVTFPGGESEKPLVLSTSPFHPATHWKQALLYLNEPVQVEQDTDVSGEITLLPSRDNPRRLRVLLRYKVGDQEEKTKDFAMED
Sequence of Protein arginine N-methyltransferase 1 (Homo sapiens) (Q99873 whole entry, looked up): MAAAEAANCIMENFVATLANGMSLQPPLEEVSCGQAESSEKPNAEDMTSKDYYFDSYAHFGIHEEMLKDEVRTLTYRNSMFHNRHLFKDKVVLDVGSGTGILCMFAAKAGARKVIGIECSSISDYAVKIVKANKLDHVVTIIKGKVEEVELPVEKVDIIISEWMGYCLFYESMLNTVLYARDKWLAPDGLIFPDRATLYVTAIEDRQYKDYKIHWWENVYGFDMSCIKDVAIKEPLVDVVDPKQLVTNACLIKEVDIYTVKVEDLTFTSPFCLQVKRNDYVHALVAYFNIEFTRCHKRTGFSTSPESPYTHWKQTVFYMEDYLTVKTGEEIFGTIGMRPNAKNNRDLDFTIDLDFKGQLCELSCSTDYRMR
Sequence of Protein arginine N-methyltransferase 3 (Homo sapiens) (O60678 2-531 limits assumed): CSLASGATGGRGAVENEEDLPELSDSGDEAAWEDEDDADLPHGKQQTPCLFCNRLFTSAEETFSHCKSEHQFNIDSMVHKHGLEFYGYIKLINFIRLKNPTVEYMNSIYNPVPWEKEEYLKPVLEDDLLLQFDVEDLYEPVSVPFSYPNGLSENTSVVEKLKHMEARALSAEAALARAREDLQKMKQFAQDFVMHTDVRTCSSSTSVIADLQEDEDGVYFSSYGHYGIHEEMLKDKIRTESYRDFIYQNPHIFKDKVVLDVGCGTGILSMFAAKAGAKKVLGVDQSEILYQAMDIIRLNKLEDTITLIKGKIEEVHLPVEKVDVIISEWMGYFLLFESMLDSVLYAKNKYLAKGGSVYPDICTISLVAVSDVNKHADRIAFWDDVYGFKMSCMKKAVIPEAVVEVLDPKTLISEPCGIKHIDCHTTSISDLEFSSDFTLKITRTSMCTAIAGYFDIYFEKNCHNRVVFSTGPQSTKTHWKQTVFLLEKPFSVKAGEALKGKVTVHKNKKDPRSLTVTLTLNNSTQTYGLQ
Sequence of Histone-lysine N-methyltransferase SETD7 (Homo sapiens) (Q8WTS6 whole entry): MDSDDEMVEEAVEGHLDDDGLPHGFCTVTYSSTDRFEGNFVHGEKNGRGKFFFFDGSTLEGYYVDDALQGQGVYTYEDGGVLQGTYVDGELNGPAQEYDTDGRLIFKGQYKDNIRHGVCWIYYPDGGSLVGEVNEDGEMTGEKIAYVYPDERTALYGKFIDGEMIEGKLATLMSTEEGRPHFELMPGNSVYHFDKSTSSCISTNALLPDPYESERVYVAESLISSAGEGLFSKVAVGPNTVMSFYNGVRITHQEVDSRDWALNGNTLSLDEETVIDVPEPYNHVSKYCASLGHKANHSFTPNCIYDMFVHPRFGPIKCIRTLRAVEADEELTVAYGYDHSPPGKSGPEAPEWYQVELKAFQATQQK

SMILES: COc1cc2cc(N)[nH]c2cc1OC
IC50 [27]: 14.4 µM

SMILES: COc1cc2c(NC3CCN(C(C)C)CC3)nc(C3CCCCC3)nc2cc1OCCCN1CCCC1
Activity [1]: inactive
Activity [2]: inactive
Activity [3]: inactive
inhibition [26]: 50%

More lines, main results first:

IC50 [4]: 0.038 µM
inhibition [5]: inactive
inhibition [6]: inactive
inhibition [7]: inactive
inhibition [8]: inactive
inhibition [9]: inactive
inhibition [10]: inactive
inhibition [11]: inactive
inhibition [12]: inactive
inhibition [13]: inactive
inhibition [14]: inactive
inhibition [15]: inactive
inhibition [16]: inactive
inhibition [17]: inactive
inhibition [18]: inactive
inhibition [19]: inactive
inhibition [20]: inactive
inhibition [21]: inactive
inhibition [22]: inactive
inhibition [23]: inactive
inhibition [24]: inactive
inhibition [25]: inactive
inhibition [26]: 50%
SMILES: COc1cc2c(cc1OCCCN1CCCC1)N=C(N)C21CCC1
Activity [1]: inactive
Activity [2]: inactive
Activity [3]: inactive

IC50 [27]: 0.018 µM
SMILES: COc1cc2c(cc1OCCCN1CC[C@H](F)C1)N=C(N)C21CCC1

IC50 [27]: 0.0037 µM
SMILES: COc1cc2c(cc1OCCCN1CC[C@@H](F)C1)N=C(N)C21CCC1
